Source: US20230293526A1, “METHOD FOR TREATING CANCER WITH A REVERSE TRANSCRIPTASE INHIBITOR” (PrimeFour Therapeutics, Inc., priority 2020, published 2023)
pIC50: −log10 of the molar value.

Test system: cancer cell lines
Experiment: Cancer cell proliferation activity of representative nucleosides, CellTiterGlo 72 h (Example 7, Tables 8 and 9)
Assay type: cell-based
Description: Dose response relationships on cell proliferation was assessed for representative nucleosides on cancer cell lines. Briefly, compound treatment of cells started one day after seeding with a final DMSO concentration of 0.1%, and was performed by nanodrop-dispensing using a Tecan Dispenser. 0.1% DMSO (solvent) and Staurosporine (10 μM) served as high control (100% viability) and low control (0% viability), respectively. Cells were cultured in the appropriate media. For the assays, cells were seeded in white cell culture-treated flat and clear bottom multiwell plates and incubated at 37° C. overnight before compound was added. After incubation for 72 h at 37° C. at 5% or 10% CO2 dependent on the medium, cell plates were equilibrated to room temperature for one hour, CellTiterGlo reagent (Promega) was added and luminescence was measured approximately an hour later using a luminometer.
Raw data were converted into percent cell viability relative to the high and low control, which were set to 100% and 0%, respectively.

Cc1cn([C@H]2C[C@H](O)[C@@](C#N)(CO)O2)c(=O)[nH]c1=O [compound 31]
pIC50 (72 h, 5637, 72 h (Table 9)): < 4.30 | pIC50 (72 h, CLS439, 72 h (Table 9)): < 4.30 | pIC50 (72 h, HS729, 72 h (Table 9)): < 4.30 | pIC50 (72 h, J82, 72 h (Table 9)): 5.31 | pIC50 (72 h, JAR, 72 h (Table 9)): < 4.30 | pIC50 (72 h, MT3, 72 h (Table 9)): 5.42 | pIC50 (72 h, PC3, 72 h (Table 9)): < 4.30 | pIC50 (72 h, RD, 72 h (Table 9)): < 4.30 | pIC50 (72 h, T24, 72 h (Table 9)): 5.52 | pIC50 (Homo sapiens, 22Rv1, 72 h, 22RV1, 72 h (Table 9)): 5.97 | pIC50 (Homo sapiens, 786-0, 72 h, 786O, 72 h (Table 9)): < 4.30 | pIC50 (Homo sapiens, A204, 72 h, A204, 72 h (Table 9)): 5.59 | pIC50 (Homo sapiens, A549, 72 h, A549, 72 h (Table 9)): < 4.30 | pIC50 (Homo sapiens, A673, 72 h, A673, 72 h (Table 9)): 5.28 | pIC50 (Homo sapiens, A2780, 72 h, A2780, 72 h (Table 9)): < 4.30 | pIC50 (Homo sapiens, A-375, 72 h, A375, 72 h (Table 9)): < 4.30 | pIC50 (Homo sapiens, A-431, 72 h, A431, 72 h (Table 9)): 5.59 | pIC50 (Homo sapiens, ACHN, 72 h, 72 h (Table 9)): 5.40 | pIC50 (Homo sapiens, ASPC1, 72 h, ASPC1, 72 h (Table 9)): < 4.30 | pIC50 (Homo sapiens, BT-20, 72 h, BT20, 72 h (Table 9)): < 4.30 | pIC50 (Homo sapiens, BXPC-3, 72 h, BXPC3, 72 h (Table 9)): 5.20 | pIC50 (Homo sapiens, C-33-A, 72 h, C33A, 72 h (Table 9)): 5.76 | pIC50 (Homo sapiens, CAKI-1, 72 h, CAKI1, 72 h (Table 9)): < 4.30 | pIC50 (Homo sapiens, COLO 205, 72 h, COLO205, 72 h (Table 9)): < 4.30 | pIC50 (Homo sapiens, COLO-678, 72 h, COLO678, 72 h (Table 9)): < 4.30 | pIC50 (Homo sapiens, Ca-Ski, 72 h, CASKI, 72 h (Table 9)): < 4.30 | pIC50 (Homo sapiens, Caco-2, 72 h, CACO2, 72 h (Table 9)): < 4.30 | pIC50 (Homo sapiens, Calu-6, 72 h, CALU6, 72 h (Table 9)): < 4.30 | pIC50 (Homo sapiens, DLD-1, 72 h, DLD1, 72 h (Table 9)): 5.34 | pIC50 (Homo sapiens, DU-145, 72 h, DU145, 72 h (Table 9)): 5.26 | pIC50 (Homo sapiens, EFO-21, 72 h, EFO21, 72 h (Table 9)): < 4.30 | pIC50 (Homo sapiens, EJ-28, 72 h, EJ28, 72 h (Table 9)): < 4.30 | pIC50 (Homo sapiens, Granta-519, 72 h, GRANTA-519, 72 h (Table 9)): 5.50 | pIC50 (Homo sapiens, HCT-15, 72 h, HCT15, 72 h (Table 9)): < 4.30 | pIC50 (Homo sapiens, HCT-116, 72 h, HCT116, 72 h (Table 9)): < 4.30 | pIC50 (Homo sapiens, HEK293, 72 h, HEK293, 72 h (Table 9)): < 4.30 | pIC50 (Homo sapiens, HL-60, 72 h, HL-60, 72 h (Table 9)): < 4.30 | pIC50 (Homo sapiens, HT-29, 72 h, HT29, 72 h (Table 9)): < 4.30 | pIC50 (Homo sapiens, HT-1080, 72 h, HT1080, 72 h (Table 9)): < 4.30 | pIC50 (Homo sapiens, HeLa, 72 h, 72 h (Table 9)): < 4.30 | pIC50 (Homo sapiens, HepG2, 72 h, HEPG2, 72 h (Table 9)): 5.29 | pIC50 (Homo sapiens, Hs-578T, 72 h, HS578T, 72 h (Table 9)): < 4.30 | pIC50 (Homo sapiens, IGROV-1, 72 h, IGROV1, 72 h (Table 9)): < 4.30 | pIC50 (Homo sapiens, IMR-90, 72 h, IMR90, 72 h (Table 9)): < 4.30 | pIC50 (Homo sapiens, JEG-3, 72 h, JEG3, 72 h (Table 9)): < 4.30 | pIC50 (Homo sapiens, JIMT-1, 72 h, JIMT1, 72 h (Table 9)): < 4.30 | pIC50 (Homo sapiens, K562, 72 h, K-562, 72 h (Table 9)): < 4.30 | pIC50 (Homo sapiens, Kasumi 1, 72 h, KASUMI-1, 72 h (Table 9)): < 4.30 | pIC50 (Homo sapiens, L-363, 72 h, L-363, 72 h (Table 9)): < 4.30 | pIC50 (Homo sapiens, LoVo, 72 h, 72 h (Table 9)): 5.45 | pIC50 (Homo sapiens, MCF7, 72 h, MCF7, 72 h (Table 9)): < 4.30 | pIC50 (Homo sapiens, MDA-MB-231, 72 h, MDAMB231, 72 h (Table 9)): < 4.30 | pIC50 (Homo sapiens, MDA-MB-435, 72 h, MDAMB435, 72 h (Table 9)): < 4.30 | pIC50 (Homo sapiens, MDA-MB-436, 72 h, MDAMB436, 72 h (Table 9)): 5.28 | pIC50 (Homo sapiens, MDA-MB-468, 72 h, MDAMB468, 72 h (Table 9)): < 4.30 | pIC50 (Homo sapiens, MG-63, 72 h, MG63, 72 h (Table 9)): < 4.30 | pIC50 (Homo sapiens, MHH-ES-1, 72 h, MHHES1, 72 h (Table 9)): 5.51 | pIC50 (Homo sapiens, MIA PaCa-2, 72 h, MIAPACA2, 72 h (Table 9)): < 4.30 | pIC50 (Homo sapiens, MINO, 72 h, 72 h (Table 9)): 5.41 | pIC50 (Homo sapiens, MV4-11, 72 h, MV4-11, 72 h (Table 9)): 6.42 | pIC50 (Homo sapiens, NCI-H23, 72 h, NCI-H23, 72 h (Table 9)): 5.39 | pIC50 (Homo sapiens, NCI-H82, 72 h, NCIH82, 72 h (Table 9)): 5.28 | pIC50 (Homo sapiens, NCI-H292, 72 h, NCIH292, 72 h (Table 9)): < 4.30 | pIC50 (Homo sapiens, NCI-H460, 72 h, NCIH460, 72 h (Table 9)): 5.55 | pIC50 (Homo sapiens, OVCAR-3, 72 h, OVCAR3, 72 h (Table 9)): < 4.30 | pIC50 (Homo sapiens, OVCAR-4, 72 h, OVCAR4, 72 h (Table 9)): < 4.30 | pIC50 (Homo sapiens, PANC-1, 72 h, PANC1, 72 h (Table 9)): < 4.30 | pIC50 (Homo sapiens, PLC-PRF-5, 72 h, PLCPRF5, 72 h (Table 9)): 5.30 | pIC50 (Homo sapiens, Panc1005, 72 h, PANC1005, 72 h (Table 9)): < 4.30 | pIC50 (Homo sapiens, Ramos, 72 h, 72 h (Table 9)): < 4.30 | pIC50 (Homo sapiens, SAOS-2, 72 h, SAOS2, 72 h (Table 9)): < 4.30 | pIC50 (Homo sapiens, SF-268, 72 h, SF268, 72 h (Table 9)): 4.84 | pIC50 (Homo sapiens, SF-295, 72 h, SF295, 72 h (Table 9)): < 4.30 | pIC50 (Homo sapiens, SK-BR-3, 72 h, SKBR3, 72 h (Table 9)): 5.46 | pIC50 (Homo sapiens, SK-HEP1, 72 h, SKHEP1, 72 h (Table 9)): 5.50 | pIC50 (Homo sapiens, SK-LMS-1, 72 h, SKLMS1, 72 h (Table 9)): 5.54 | pIC50 (Homo sapiens, SK-MEL-5, 72 h, SKMEL5, 72 h (Table 9)): < 4.30 | pIC50 (Homo sapiens, SK-MEL-28, 72 h, SKMEL28, 72 h (Table 9)): < 4.30 | pIC50 (Homo sapiens, SK-N-AS, 72 h, SKNAS, 72 h (Table 9)): < 4.30 | pIC50 (Homo sapiens, SK-N-SH, 72 h, SKNSH, 72 h (Table 9)): < 4.30 | pIC50 (Homo sapiens, SK-OV-3, 72 h, SKOV3, 72 h (Table 9)): < 4.30 | pIC50 (Homo sapiens, SNB-75, 72 h, SNB75, 72 h (Table 9)): 5.34 | pIC50 (Homo sapiens, SU-DHL10, 72 h, SU-DHL-10, 72 h (Table 9)): < 4.30 | pIC50 (Homo sapiens, SU-DHL-6, 72 h, SU-DHL-6, 72 h (Table 9)): 5.41 | pIC50 (Homo sapiens, SW-620, 72 h, SW620, 72 h (Table 9)): < 4.30 | pIC50 (Homo sapiens, TE-671, 72 h, TE671, 72 h (Table 9)): < 4.30 | pIC50 (Homo sapiens, THP-1, 72 h, THP-1, 72 h (Table 9)): 5.60 | pIC50 (Homo sapiens, U2OS, 72 h, 72 h (Table 9)): < 4.30 | pIC50 (Homo sapiens, U-87 MG, 72 h, U87MG, 72 h (Table 9)): 5.28 | pIC50 (Homo sapiens, UMUC3, 72 h, UMUC3, 72 h (Table 9)): < 4.30 | pIC50 (Homo sapiens, UO-31, 72 h, UO31, 72 h (Table 9)): < 4.30 | pIC50 (Homo sapiens, WSU-NHL, 72 h, 72 h (Table 9)): 5.37 | pIC50 (NCI-H358M, 72 h, NCIH358M, 72 h (Table 9)): < 4.30 | pIC50 (PBMC, 72 h, 72 h (Table 9)): < 4.30 | pIC50 (RD-ES, 72 h, RDES, 72 h (Table 9)): 5.44
